Laboratory results reported in patent US20250222146A1, “Radiopharmaceuticals Targeting Somatostatin Receptor 2 and Uses Thereof” (RayzeBio, Inc., priority 2023, published 2025).
Read-outs that look alike come from different tables or passages of the source. Numbered stars: 1 amine (or outer) side, 2 acyl side, 3 side chain; on linkers, the order of the positions; unused ones are H or OH. Square brackets hold non-standard residues; d marks the D form. Side chains are listed from the residue outwards. Peptide text beside a SMILES is read from it. * marks the point of attachment. DOTA(Lu)NH(CH2)6NHCOCH2 = O=C(CN1CCN2CCN3CCN(CC1)CC(=O)[O][Lu]([O]C(=O)C2)[O]C(=O)C3)NCCCCCCNC(=O)C*; X10 = O=C(CN1CCN2CCN3CCN(CC1)CC(=O)[O][Lu]([O]C(=O)C2)[O]C(=O)C3)NCC12CCC(C(=O)*)(CC1)CC2; X14 = O=C(CN1CCN2CCN3CCN(CC1)CC(=O)[O][Lu]([O]C(=O)C2)[O]C(=O)C3)NCC1CCC(C(=O)*)CC1; DOTA(Lu) = O=C1CN2CCN3CCN(CC(=O)*)CCN(CC2)CC(=O)[O][Lu]([O]1)[O]C(=O)C3; X7 = O=C1CN2CCN3CCN(CC2)[C@H](CCC(=O)*)C(=O)[O][Ga]([O]1)[O]C(=O)C3; Ala(piperidin-4-yl) = O=C([C@H](CC1CCN([*:3])CC1)N[*:1])[*:2]; dTrp(βS-Me) = C[C@@H](c1c[nH]c2ccccc12)[C@@H](N)C(=O)O; X11 = O=C1CN2CCN(CCN(CC(=O)*)CC2)CC(=O)[O][Ga+][O]1; Ala(piperazin-1-yl) = N[C@@H](CN1CCNCC1)C(=O)O; X8 = O=C([C@@H](Cc1n[nH]c2ccccc12)N[*:1])[*:2]; X2 = O=C([C@H](CCC1CNC1)N[*:1])[*:2]; Lys(Me2) = CN(C)CCCC[C@H](N)C(=O)O; NMeLys(Me) = CNCCCC[C@H](NC)C(=O)O; Trx = NC[C@H]1CC[C@H](C(=O)O)CC1; Lys(Me) = CNCCCC[C@H](N)C(=O)O; NMehCys = CN[C@@H](CCS)C(=O)O; NMeK = CN[C@@H](CCCCN)C(=O)O; X1 = C1NCC1*

B1: RB-0006176 (peptide)
peptide: cyclo([NMeK]Y[dTrp(βS-Me)][Ala(piperazin-1-yl)]TF)
modifications: not fully specified (residue 1); printed as cyclo[NMe-Lys(DOTA-Lu),Tyr,(S-βMe)D-Trp,PipzaA,Thr,Phe]; also: Lu chelated in DOTA

How the values were obtained:
SSTR2 = SSTR2 (Homo sapiens, UniProt P30874); experiment: SSTR binding affinity by radioligand binding competition assay ([125I]-Tyr11-Somatostatin, membrane extracts); conditions: radioligand competition, [125I]-Tyr11-Somatostatin 0.1 nM, membrane extracts, Ki from IC50 by Cheng Prusoff
[1] = Peptide conjugate biodistribution measured by tissue PK (ICP-MS, % ID/g in kidney tissue at 2 h); type: in vivo; conditions: 2 h time point, mouse
Description: Macrocyclic peptides and conjugates described herein were tested for tissue distribution by measuring concentrations in tissues by MS using in vivo animal models. Peptide metal chelates were dosed to animals and tissues were collected at specific time points based off the peptide PK profile. The samples were then analyzed by MS and the results reported as % ID/g (% injected dose/gram). Radiopharmaceutical conjugates of the present disclosure have improved tissue distribution for radiopharmaceutical therapeutics.
Peptide metal chelate doses were suspended in phosphate-buffered saline (PBS) containing 0.1% Tween 80. An injection volume of 100 μL per mouse was used, and blood and tissue samples were collected, weighed, and stored frozen at-80° C. until analysis. Tissue samples were digested with concentrated nitric acid in a microwave digestion apparatus. The sample digest was diluted with internal standard and analyzed using inductively coupled plasma mass spectrometry (ICP-MS). ICP-MS is an elemental analysis technique used to measure elements by using argon plasma to convert the sample into ions that are then measured using the mass spectrometer. Calibration standards were used for quantification of element(s) of interest by constructing a multipoint standard curve covering the range of analyte concentrations anticipated in the samples (typical range is 500 ppt to 0.1 ppt). A single quadrupole instrument (iCAP RQ, Thermo Fisher) ICP-MS was coupled with a Teledyne CETAC autosampler and used for the sample analysis.
The % ID/g of conjugate in kidney tissue at the 2-hour time point (2 h) was quantified for various conjugates, and the results are shown in Table 10. Lower kidney tissue % ID/g values indicate lower distribution to the kidney after administration of the conjugate.

[2] = target: T1, somatostatin receptor type 2 (SSTR2) (UniProt P30874 1-369, limits assumed); experiment: radioligand competition; Ki bin per legend
T1 construct: also called SSTR protein
T1 sequence (P30874 whole entry): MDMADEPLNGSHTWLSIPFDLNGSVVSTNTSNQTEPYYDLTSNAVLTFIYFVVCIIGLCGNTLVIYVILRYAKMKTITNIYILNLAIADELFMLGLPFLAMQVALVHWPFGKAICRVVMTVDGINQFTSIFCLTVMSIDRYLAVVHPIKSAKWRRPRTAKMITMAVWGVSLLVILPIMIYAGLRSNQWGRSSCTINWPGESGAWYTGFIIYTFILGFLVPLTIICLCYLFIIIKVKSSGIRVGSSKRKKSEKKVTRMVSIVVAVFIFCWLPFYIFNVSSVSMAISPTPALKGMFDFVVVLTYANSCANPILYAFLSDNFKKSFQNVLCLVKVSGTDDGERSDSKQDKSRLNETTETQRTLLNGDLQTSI

SSTR2, sequence (P30874 whole entry): as above

Molecule	Ki (SSTR2; SSTR2 Ki) [nM]	tissue uptake at 2 h [1] [%ID/g]	Ki (SSTR2; read-out: SSTR2 Ki) [nM]	Ki [2] [nM]
C[C@@H](O)[C@@H]1NC(=O)[C@H](CCCCN)NC(=O)[C@@H](Cc2c[nH]c3ccccc23)NC(=O)[C@H](Cc2ccc(O)cc2)NC(=O)[C@H](CCSCC(=O)NCCCCCCNC(=O)CN2CCN3CCN4CCN(CC2)CC(=O)[O][Lu]([O]C(=O)C3)[O]C(=O)C4)N(C)C(=O)[C@H](Cc2ccccc2)NC1=O [RB-0003149]	< 1	8.4		
C[C@@H](O)[C@@H]1NC(=O)[C@H](CCCCN)NC(=O)[C@H](Cc2c[nH]c3ccccc23)NC(=O)[C@H](Cc2ccc(O)cc2)NC(=O)[C@H](CCSCC(=O)NCCOCCOCCOCCNC(=O)CN2CCN3CCN4CCN(CC2)CC(=O)[O][Lu]([O]C(=O)C3)[O]C(=O)C4)N(C)C(=O)[C@H](Cc2ccccc2)NC1=O [RB-0005502]		9.4	< 1	
C[C@@H](O)[C@@H]1NC(=O)[C@H](CC2CCNCC2)NC(=O)[C@@H]([C@@H](C)c2c[nH]c3ccccc23)NC(=O)[C@H](Cc2ccc(O)cc2)NC(=O)[C@H](CCSCC(=O)NCCCCCCNC(=O)CN2CCN3CCN4CCN(CC2)CC(=O)[O][Lu]([O]C(=O)C3)[O]C(=O)C4)N(C)C(=O)[C@H](Cc2ccccc2)NC1=O [RB-0005760] (cyclo(F[NMehCys](DOTA(Lu)NH(CH2)6NHCOCH2)Y[dTrp(βS-Me)][Ala(piperidin-4-yl)]T))		2.7	< 1	
CNCCCC[C@@H]1NC(=O)[C@@H](Cc2c[nH]c3ccccc23)NC(=O)[C@H](Cc2ccc(O)cc2)NC(=O)[C@H](CCSCC(=O)NCCCCCCNC(=O)CN2CCN3CCN4CCN(CC2)CC(=O)[O][Lu]([O]C(=O)C3)[O]C(=O)C4)N(C)C(=O)[C@H](Cc2ccccc2)NC(=O)[C@H]([C@@H](C)O)NC1=O [RB-0005799] (cyclo(F[NMehCys](DOTA(Lu)NH(CH2)6NHCOCH2)Y[dW][Lys(Me)]T))		2.3	< 1	
C[C@@H](O)[C@@H]1NC(=O)[C@H](CCCCN(C)C)NC(=O)[C@@H](Cc2c[nH]c3ccccc23)NC(=O)[C@H](Cc2ccc(O)cc2)NC(=O)[C@H](CCSCC(=O)NCCCCCCNC(=O)CN2CCN3CCN4CCN(CC2)CC(=O)[O][Lu]([O]C(=O)C3)[O]C(=O)C4)N(C)C(=O)[C@H](Cc2ccccc2)NC1=O [RB-0005801] (cyclo(F[NMehCys](DOTA(Lu)NH(CH2)6NHCOCH2)Y[dW][Lys(Me2)]T))		2	1 to 3.33	
C[C@@H](O)[C@@H]1NC(=O)[C@H](CN2CCNCC2)NC(=O)[C@@H](Cc2c[nH]c3ccccc23)NC(=O)[C@H](Cc2ccc(O)cc2)NC(=O)[C@H](CCSCC(=O)NCCCCCCNC(=O)CN2CCN3CCN4CCN(CC2)CC(=O)[O][Lu]([O]C(=O)C3)[O]C(=O)C4)N(C)C(=O)[C@H](Cc2ccccc2)NC1=O [RB-0005805] (cyclo(F[NMehCys](DOTA(Lu)NH(CH2)6NHCOCH2)Y[dW][Ala(piperazin-1-yl)]T))	< 1	2.5		
C[C@@H](O)[C@@H]1NC(=O)[C@H](CCC2CNC2)NC(=O)[C@@H](Cc2c[nH]c3ccccc23)NC(=O)[C@H](Cc2ccc(O)cc2)NC(=O)[C@H](CCSCC(=O)NCCCCCCNC(=O)CN2CCN3CCN4CCN(CC2)CC(=O)[O][Lu]([O]C(=O)C3)[O]C(=O)C4)N(C)C(=O)[C@H](Cc2ccccc2)NC1=O [RB-0005897] (cyclo(F[NMehCys](DOTA(Lu)NH(CH2)6NHCOCH2)Y[dW][X2]T))		2.5	< 1	
C[C@@H](O)[C@@H]1NC(=O)[C@H](COC2CNC2)NC(=O)[C@@H](Cc2c[nH]c3ccccc23)NC(=O)[C@H](Cc2ccc(O)cc2)NC(=O)[C@H](CCSCC(=O)NCCCCCCNC(=O)CN2CCN3CCN4CCN(CC2)CC(=O)[O][Lu]([O]C(=O)C3)[O]C(=O)C4)N(C)C(=O)[C@H](Cc2ccccc2)NC1=O [RB-0006013] (cyclo(F[NMehCys](DOTA(Lu)NH(CH2)6NHCOCH2)Y[dW]S(X1)T))		3	1 to 3.33	
C[C@@H](O)[C@@H]1NC(=O)[C@H](CN2CCNCC2)NC(=O)[C@@H]([C@@H](C)c2c[nH]c3ccccc23)NC(=O)[C@H](Cc2ccc(O)cc2)NC(=O)[C@H](CCSCC(=O)NCCCCCCNC(=O)CN2CCN3CCN4CCN(CC2)CC(=O)[O][Lu]([O]C(=O)C3)[O]C(=O)C4)N(C)C(=O)[C@H](Cc2ccccc2)NC1=O [RB-0006072] (cyclo(F[NMehCys](DOTA(Lu)NH(CH2)6NHCOCH2)Y[dTrp(βS-Me)][Ala(piperazin-1-yl)]T))		2.7	< 1	
C[C@@H](O)[C@@H]1NC(=O)[C@H](CC2CCNCC2)NC(=O)[C@@H]([C@@H](C)c2c[nH]c3ccccc23)NC(=O)[C@H](Cc2ccc(O)cc2)NC(=O)[C@H](CCCCNC(=O)CN2CCN3CCN4CCN(CC2)CC(=O)[O][Lu]([O]C(=O)C3)[O]C(=O)C4)N(C)C(=O)[C@H](Cc2ccccc2)NC1=O [RB-0006176] (cyclo(F[NMeK](DOTA(Lu))Y[dTrp(βS-Me)][Ala(piperidin-4-yl)]T))		1.6		
C[C@@H](O)[C@@H]1NC(=O)[C@H](CC2CCNCC2)NC(=O)[C@@H]([C@@H](C)c2c[nH]c3ccccc23)NC(=O)[C@H](Cc2ccc(O)cc2)NC(=O)[C@H](CCCCNC(=O)C2CCC(CNC(=O)CN3CCN4CCN5CCN(CC3)CC(=O)[O][Lu]([O]C(=O)C4)[O]C(=O)C5)CC2)N(C)C(=O)[C@H](Cc2ccccc2)NC1=O (some centres unmarked) [RB-0006464] (cyclo(F[NMeK](X14)Y[dTrp(βS-Me)][Ala(piperidin-4-yl)]T))			1 to 3.33	
C[C@@H](O)[C@@H]1NC(=O)[C@H](CC2CCNCC2)NC(=O)[C@@H]([C@@H](C)c2c[nH]c3ccccc23)NC(=O)[C@H](Cc2ccc(O)cc2)NC(=O)[C@H](CCCCNC(=O)[C@H]2CC[C@H](CNC(=O)CC[C@@H]3C(=O)[O][Ga]4[O]C(=O)CN5CCN(CCN3CC5)CC(=O)[O]4)CC2)N(C)C(=O)[C@H](Cc2ccccc2)NC1=O [RB-0006470] (cyclo(F[NMeK]([Trx-X7])Y[dTrp(βS-Me)][Ala(piperidin-4-yl)]T))			1 to 3.33	
C[C@@H](O)[C@@H]1NC(=O)[C@H](CC2CCNCC2)NC(=O)[C@@H]([C@@H](C)c2c[nH]c3ccccc23)NC(=O)[C@H](Cc2ccc(O)cc2)NC(=O)[C@H](CCCCNC(=O)CCC2C(=O)[O][Ga]3[O]C(=O)CN4CCN(CCN2CC4)CC(=O)[O]3)N(C)C(=O)[C@H](Cc2ccccc2)NC1=O (some centres unmarked) [RB-0006476]			3.33 to 10	
C[C@@H](O)[C@@H]1NC(=O)[C@H](CC2CCNCC2)NC(=O)[C@@H]([C@@H](C)c2c[nH]c3ccccc23)NC(=O)[C@H](Cc2ccc(O)cc2)NC(=O)[C@H](CCCCNC(=O)CN2CCN3CCN(CC2)CC(=O)[O][Ga+][O]C(=O)C3)N(C)C(=O)[C@H](Cc2ccccc2)NC1=O [RB-0006488] (cyclo(F[NMeK](X11)Y[dTrp(βS-Me)][Ala(piperidin-4-yl)]T))			1 to 3.33	
C[C@@H](O)[C@@H]1NC(=O)[C@H](CC2CCNCC2)NC(=O)[C@@H](Cc2n[nH]c3ccccc23)NC(=O)[C@H](Cc2ccc(O)cc2)NC(=O)[C@H](CCCCNC(=O)CN2CCN3CCN4CCN(CC2)CC(=O)[O][Lu]([O]C(=O)C3)[O]C(=O)C4)N(C)C(=O)[C@H](Cc2ccccc2)NC1=O [RB-0006553] (cyclo(F[NMeK](DOTA(Lu))Y[X8][Ala(piperidin-4-yl)]T))			10 to 33.3	
C[C@@H](O)[C@@H]1NC(=O)[C@H](CC2CCNCC2)NC(=O)[C@@H]([C@@H](C)c2c[nH]c3ccccc23)NC(=O)[C@H](Cc2ccc(O)cc2)NC(=O)[C@H](CCCCNC(=O)C23CCC(CNC(=O)CN4CCN5CCN6CCN(CC4)CC(=O)[O][Lu]([O]C(=O)C5)[O]C(=O)C6)(CC2)CC3)N(C)C(=O)[C@H](Cc2ccccc2)NC1=O [RB-0006558] (cyclo(F[NMeK](X10)Y[dTrp(βS-Me)][Ala(piperidin-4-yl)]T))			< 1	
C[C@@H](O)[C@@H]1NC(=O)[C@H](CC2CCNCC2)NC(=O)[C@@H]([C@@H](C)c2c[nH]c3ccccc23)NC(=O)[C@H](Cc2ccc(O)cc2)NC(=O)[C@H](CCCCN(C)C(=O)CN2CCN3CCN4CCN(CC2)CC(=O)[O][Lu]([O]C(=O)C4)[O]C(=O)C3)N(C)C(=O)[C@H](Cc2ccccc2)NC1=O [RB-0006579] (cyclo(F[NMeLys(Me)](DOTA(Lu))Y[dTrp(βS-Me)][Ala(piperidin-4-yl)]T))			3.33 to 10	
C[C@@H](O)[C@@H]1NC(=O)[C@H](CC2CCNCC2)NC(=O)[C@@H]([C@@H](C)c2c[nH]c3ccccc23)NC(=O)[C@H](Cc2ccc(O)cc2)NC(=O)[C@H](CCCCn2cc(CNC(=O)CN3CCN4CCN5CCN(CC3)CC(=O)[O][Lu]([O]C(=O)C4)[O]C(=O)C5)nn2)N(C)C(=O)[C@H](Cc2ccccc2)NC1=O [RB-0006591]			3.33 to 10	
XYWKVF (cyclo[NMe-Hcy(COCH2-Dah-DOTA-Lu);Tyr;D-Trp;Lys;Val;Phe]) [RB-0002676]				< 1
B1				< 1
